# Experimental data as given in ChEMBL document CHEMBL4414569, “Myxochelin- and Pseudochelin-Derived Lipoxygenase Inhibitors from a Genetically Engineered Myxococcus xanthus Strain” (J Nat Prod, 2019).
# Active and inactive are the calls of the source. The rule behind the calls is not given here.
# Key:
# [1] = biological target: T1, Polyunsaturated fatty acid 5-lipoxygenase (Homo sapiens, UniProt P09917); assay: Inhibition of recombinant human 5-lipoxygenase using arachidonic acid as substrate preincubated for 10 mins followed by susbtrate addition and measured after 10 mins by reverse phase HPLC method
# T1 sequence (P09917 whole entry): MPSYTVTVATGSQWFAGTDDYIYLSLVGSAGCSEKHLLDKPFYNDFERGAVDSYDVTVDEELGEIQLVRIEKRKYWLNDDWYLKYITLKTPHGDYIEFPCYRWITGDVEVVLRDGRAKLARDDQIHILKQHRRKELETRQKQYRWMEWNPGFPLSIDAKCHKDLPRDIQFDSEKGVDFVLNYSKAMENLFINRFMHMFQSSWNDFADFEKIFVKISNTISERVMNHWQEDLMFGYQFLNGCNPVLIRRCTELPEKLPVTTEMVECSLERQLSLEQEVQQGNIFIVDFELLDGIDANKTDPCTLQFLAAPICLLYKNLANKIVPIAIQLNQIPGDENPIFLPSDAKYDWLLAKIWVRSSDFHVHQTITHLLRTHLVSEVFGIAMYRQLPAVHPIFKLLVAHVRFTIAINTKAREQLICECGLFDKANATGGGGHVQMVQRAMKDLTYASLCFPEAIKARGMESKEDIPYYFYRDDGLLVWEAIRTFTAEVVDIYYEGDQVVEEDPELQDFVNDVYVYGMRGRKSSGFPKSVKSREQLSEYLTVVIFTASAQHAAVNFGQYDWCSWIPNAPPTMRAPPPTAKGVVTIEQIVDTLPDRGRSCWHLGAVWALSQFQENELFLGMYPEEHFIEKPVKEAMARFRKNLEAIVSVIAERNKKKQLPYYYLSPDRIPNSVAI
# [2] = biological target: T2, Polyunsaturated fatty acid 5-lipoxygenase (Homo sapiens) (UniProt P09917); assay: Inhibition of recombinant human 5-lipoxygenase at <10 uM using arachidonic acid as substrate preincubated for 10 mins followed by susbtrate addition and measured after 10 mins by reverse phase HPLC method
# T2 sequence (whole entry): T1 sequence (P09917 whole entry)
IC50 [1] [nM],inhibition [2],SMILES
> 10000,,O=C(NCCCC[C@H]1CN=C(c2ccccc2O)N1)c1ccccc1O
900,,O=C(NCCCC[C@H]1CN=C(c2cccc(O)c2O)N1)c1cccc(O)c1O
1400,,NC[C@H](CCCCNC(=O)c1cccc(O)c1O)NC(=O)c1cccc(O)c1O
9300,,NC[C@H](CCCCNC(=O)c1cccc(O)c1O)NC(=O)c1c(O)cccc1F
> 10000,inactive,NC[C@H](CCCCNC(=O)c1ccccc1O)NC(=O)c1ccccc1O
1500,,O=C(NCCCC[C@H]1CN=C(c2ccccc2O)N1)c1cccc(O)c1O
> 10000,inactive,NC[C@H](CCCCNC(=O)c1c(O)cccc1F)NC(=O)c1cccc(O)c1O
2200,,O=C(NCCCC[C@H]1CN=C(c2cccc(O)c2O)N1)c1ccccc1O
10000,,NC[C@H](CCCCNC(=O)c1ccccc1O)NC(=O)c1cccc(O)c1O
2200,,O=C(NCCCC[C@H]1CN=C(c2c(O)cccc2F)N1)c1cccc(O)c1O
1100,,O=C(NCCCC[C@H]1CN=C(c2cccc(O)c2O)N1)c1c(O)cccc1F
5600,,NC[C@H](CCCCNC(=O)c1cccc(O)c1O)NC(=O)c1ccccc1O
1900,,O=C(NCCCC[C@@H](CO)NC(=O)c1cccc(O)c1O)c1cccc(O)c1O
